Measurements: ChEMBL document CHEMBL5625248, “Identification of unique indolylcyanoethylenyl sulfonylanilines as novel structural scaffolds of potential antibacterial agents” (Eur J Med Chem, 2023)
Converted amounts (≈) assume the structure as drawn. The source made the active and inactive calls. No cut-off for these calls is given here.

Legend:
Cell membrane [1] = assay: Induction of membrane depolarization in Escherichia coli ATCC 25922 assessed as increase in fluorescence intensity measured at 20 to 120 min by DiSC3(5) dye-based fluorescence assay; assay type: cell membranes; conditions: time 20-120 min
Cell membrane [2] = assay: Induction of cell membrane disruption in Acinetobacter baumannii assessed as cell membrane shrank at 2 times MIC by scanning electron microscopic analysis; assay type: cell membranes
Acinetobacter baumannii [3] = assay: Antibacterial activity against Acinetobacter baumannii assessed as reduction in biofilm formation; assay type: functional, organism-based
Acinetobacter baumannii [4] = assay: Induction of oxidative stress in Acinetobacter baumannii assessed as decrease in GSH activity by Ellman's method; assay type: functional, organism-based
Cell membrane [5] = assay: Induction of cell membrane disruption in Escherichia coli ATCC 25922 assessed as cell membrane shrank at 2 times MIC by scanning electron microscopic analysis; assay type: cell membranes
Escherichia coli [6] = assay: Antibacterial activity against Escherichia coli ATCC 25922 assessed as reduction in metabolic activity by alamar blue staining based assay; assay type: functional, organism-based
Acinetobacter baumannii [7] = assay: Antibacterial activity against Acinetobacter baumannii assessed as increase in intracellular ROS production by measuring green fluorescence by DCFH-DA staining based microscopic analysis; assay type: functional, organism-based
Escherichia coli [8] = assay: Induction of drug resistance against Escherichia coli ATCC 25922 assessed as fold increase at MIC measured after 16 passages; assay type: functional
Cell membrane [9] = assay: Induction of membrane depolarization in Acinetobacter baumannii assessed as increase in fluorescence intensity at 1 to 8 times MIC by DiSC3(5) dye-based fluorescence assay; assay type: cell membranes; conditions: TDE = time-dependent effect
Escherichia coli [10] = assay: Antibacterial activity against Escherichia coli ATCC 25922 assessed as reduction in LDH activity; assay type: functional, organism-based
Cell membrane [11] = assay: Induction of inner membrane damage in Escherichia coli ATCC 25922 at 1 to 4 times MIC by PI staining fluorescence microscopy; assay type: cell membranes
Escherichia coli [12] = assay: Bactericidal activity against Escherichia coli ATCC 25922 assessed as reduction in bacterial growth at 4 times MIC observed after 2 hrs by time-kill kinetic assay; assay type: functional; parameters: scale not given: the % may be the effect or the level left
Enterococcus faecalis = assay: Antibacterial activity against Enterococcus faecalis assessed as inhibition of bacterial growth incubated for 18 hrs by two fold broth microdilution assay; assay type: functional
Cell membrane [13] = assay: Induction of inner membrane damage in Acinetobacter baumannii at 1 to 4 times MIC by PI staining fluorescence microscopy; assay type: cell membranes
Calf thymus DNA [14] = assay: Binding affinity to calf thymus DNA assessed as decrease in fluorescence intensity of AO-DNA binding by acridine orange probe based competitive binding assay; assay type: nucleic-acid assay; conditions: Bos taurus
Acinetobacter baumannii [15] = assay: Bactericidal activity against Acinetobacter baumannii assessed as reduction in colony forming unit at MIC by time-kill kinetic assay; assay type: functional
Cell membrane [16] = assay: Induction of outer membrane permeabilization in Acinetobacter baumannii assessed as increase in fluorescence intensity by NPN-dye based fluorescence analysis; assay type: cell membranes
Calf thymus DNA [17] = assay: Binding affinity to calf thymus DNA assessed as DNA intercalation by measuring hypochromic shift by absorbance based UV-Vis spectroscopic analysis; assay type: nucleic-acid assay; conditions: Bos taurus
Acinetobacter baumannii [18] = assay: Antibacterial activity against Acinetobacter baumannii assessed as reduction in biofilm formation at 8 times MIC relative to control; assay type: functional; parameters: scale not given: the % may be the effect or the level left
Acinetobacter baumannii [19] = assay: Antibacterial activity against Acinetobacter baumannii assessed as increase in intracellular ROS production by DCFH-DA staining based assay; assay type: functional, organism-based
Pseudomonas aeruginosa [20] = assay: Antibacterial activity against Pseudomonas aeruginosa ATCC 27853 assessed as inhibition of bacterial growth incubated for 18 hrs by two fold broth microdilution assay; assay type: functional
[21] = Cytotoxicity against human Colon epithelial cell assessed as cell viability upto 50 ug/ml relative to control; assay type: toxicity, cell-based; conditions: colon epithelial cells, up to 50 µg/mL, read-out: Activity
[22] = Cytotoxicity against human Colon epithelial cell at 20 ug/ml; assay type: toxicity, cell-based; conditions: dose 20 µg/ml
Acinetobacter baumannii [23] = assay: Antibacterial activity against Acinetobacter baumannii assessed as reduction in LDH activity; assay type: functional, organism-based
Staphylococcus aureus [24] = assay: Antibacterial activity against Staphylococcus aureus ATCC 25923 assessed as inhibition of bacterial growth incubated for 18 hrs by two fold broth microdilution assay; assay type: functional
Escherichia coli [25] = assay: Antibacterial activity against Escherichia coli ATCC 25922 assessed as increase in intracellular ROS production by DCFH-DA staining based assay; assay type: functional, organism-based
Acinetobacter baumannii [26] = assay: Bactericidal activity against Acinetobacter baumannii assessed as reduction in bacterial growth at 4 times MIC observed after 2 hrs by time-kill kinetic assay; assay type: functional; parameters: scale not given: the % may be the effect or the level left
Cell membrane [27] = assay: Induction of cell membrane disruption in Acinetobacter baumannii assessed as increase in protein leakage at 0.5 to 8 times MIC; assay type: cell membranes
Escherichia coli [28] = assay: Antibacterial activity against Escherichia coli ATCC 25922 assessed as inhibition of bacterial growth incubated for 18 hrs by two fold broth microdilution assay; assay type: functional
Cell membrane [29] = assay: Induction of membrane depolarization in Escherichia coli ATCC 25922 assessed as increase in fluorescence intensity at 1 to 8 times MIC by DiSC3(5) dye-based fluorescence assay; assay type: cell membranes; conditions: TDE = time-dependent effect
Escherichia coli [30] = assay: Antibacterial activity against Escherichia coli assessed as inhibition of bacterial growth incubated for 18 hrs by two fold broth microdilution assay; assay type: functional
Cell membrane [31] = assay: Induction of inner membrane permeabilization in Acinetobacter baumannii assessed as increase in fluorescence intensity by PI staining based fluorescence analysis; assay type: cell membranes
[32] = Hemolytic activity in human RBC assessed as hemolysis at 512 ug/ml incubated for 1 hr relative to control; assay type: toxicity, cell-based, Erythrocyte; conditions: human red blood cells (erythrocytes), at 512 µg/mL, read-out: Activity
Escherichia coli [33] = assay: Antibacterial activity against Escherichia coli ATCC 25922 assessed as reduction in biofilm formation; assay type: functional, organism-based
Cell membrane [34] = assay: Induction of membrane depolarization in Acinetobacter baumannii assessed as increase in fluorescence intensity measured at 20 to 120 min by DiSC3(5) dye-based fluorescence assay; assay type: cell membranes; conditions: time 20-120 min
Klebsiella pneumoniae = assay: Antibacterial activity against Klebsiella pneumoniae assessed as inhibition of bacterial growth incubated for 18 hrs by two fold broth microdilution assay; assay type: functional
Acinetobacter baumannii [35] = assay: Antibacterial activity against Acinetobacter baumannii assessed as reduction in metabolic activity by alamar blue staining based assay; assay type: functional, organism-based
Acinetobacter baumannii [36] = assay: Induction of drug resistance against Acinetobacter baumannii assessed as fold increase at MIC measured after 16 passages; assay type: functional
Cell membrane [37] = assay: Induction of outer membrane permeabilization in Escherichia coli ATCC 25922 assessed as increase in fluorescence intensity by NPN-dye based fluorescence analysis; assay type: cell membranes
Escherichia coli [38] = assay: Bactericidal activity against Escherichia coli ATCC 25922 assessed as reduction in colony forming unit at MIC by time-kill kinetic assay; assay type: functional
Staphylococcus aureus [39] = assay: Antibacterial activity against methicilin-resistant Staphylococcus aureus N315 assessed as inhibition of bacterial growth incubated for 18 hrs by two fold broth microdilution assay; assay type: functional
Staphylococcus aureus [40] = assay: Antibacterial activity against Staphylococcus aureus ATCC 29213 assessed as inhibition of bacterial growth incubated for 18 hrs by two fold broth microdilution assay; assay type: functional
Escherichia coli [41] = assay: Antibacterial activity against Escherichia coli ATCC 25922 assessed as increase in intracellular ROS production by measuring green fluorescence by DCFH-DA staining based microscopic analysis; assay type: functional, organism-based
[42] = Cytotoxicity against human Squamous epithelial cell at 20 ug/ml; assay type: toxicity, cell-based; conditions: dose 20 µg/ml
Escherichia coli [43] = assay: Induction of oxidative stress in Escherichia coli ATCC 25922 assessed as decrease in GSH activity by Ellman's method; assay type: functional, organism-based
Erythrocyte = assay: Hemolytic activity in human RBC assessed as intact cell surface at 512 ug/ml incubated for 1 hr by microscopic analysis; assay type: toxicity, cell-based; conditions: dose 512 µg/ml
[44] = Cytotoxicity against human Squamous epithelial cell assessed as cell viability upto 50 ug/ml relative to control; assay type: toxicity, cell-based; conditions: squamous epithelial cells, up to 50 µg/mL, read-out: Activity
Acinetobacter baumannii [45] = assay: Antibacterial activity against Acinetobacter baumannii assessed as inhibition of bacterial growth incubated for 18 hrs by two fold broth microdilution assay; assay type: functional
Escherichia coli [46] = assay: Antibacterial activity against Escherichia coli ATCC 25922 assessed as reduction in biofilm formation at 8 times MIC relative to control; assay type: functional; parameters: scale not given: the % may be the effect or the level left
Cell membrane [47] = assay: Induction of inner membrane permeabilization in Escherichia coli ATCC 25922 assessed as increase in fluorescence intensity by PI staining based fluorescence analysis; assay type: cell membranes
Pseudomonas aeruginosa [48] = assay: Antibacterial activity against Pseudomonas aeruginosa assessed as inhibition of bacterial growth incubated for 18 hrs by two fold broth microdilution assay; assay type: functional
Cell membrane [49] = assay: Induction of cell membrane disruption in Escherichia coli ATCC 25922 assessed as increase in protein leakage at 0.5 to 8 times MIC; assay type: cell membranes
Staphylococcus aureus [50] = assay: Antibacterial activity against Staphylococcus aureus assessed as inhibition of bacterial growth incubated for 18 hrs by two fold broth microdilution assay; assay type: functional

N#C/C(=C\c1cn(CCO)c2ccccc12)S(=O)(=O)c1ccc(N)cc1
Activity (Cell membrane [1]): Dose-Dependent Effect | Activity (Cell membrane [2]): Active | Activity (Acinetobacter baumannii [3]): Dose-Dependent Effect | Activity (Acinetobacter baumannii [4]): Dose-Dependent Effect | Activity (Cell membrane [5]): Active | Activity (Escherichia coli [6]): Dose-Dependent Effect | Activity (Acinetobacter baumannii [7]): Dose-Dependent Effect | fold change (FC) (Escherichia coli [8]): 8 | Activity (Cell membrane [9]): Tde | Activity (Escherichia coli [10]): Dose-Dependent Effect | Activity (Cell membrane [11]): Active | Activity (Escherichia coli [12]): 57% | MIC (Enterococcus faecalis): 4 µg/mL (≈ 10.9 µM) | Activity (Cell membrane [13]): Active | Activity (Calf thymus DNA [14]): Active | Activity (Acinetobacter baumannii [15]): 2 log10CFU | Activity (Cell membrane [16]): Dose-Dependent Effect | Activity (Calf thymus DNA [17]): Active | Activity (Acinetobacter baumannii [18]): 39% | Activity (Acinetobacter baumannii [19]): Dose-Dependent Effect | MIC (Pseudomonas aeruginosa [20]): 4 µg/mL (≈ 10.9 µM) | viability [21]: > 85% | Activity [22]: Non-Toxic | Activity (Acinetobacter baumannii [23]): Dose-Dependent Effect | MIC (Staphylococcus aureus [24]): 1 µg/mL (≈ 2.72 µM) | Activity (Escherichia coli [25]): Dose-Dependent Effect | Activity (Acinetobacter baumannii [26]): 57% | Activity (Cell membrane [27]): Active | MIC (Escherichia coli [28]): 0.5 µg/mL (≈ 1.36 µM) | Activity (Cell membrane [29]): Tde | MIC (Escherichia coli [30]): 8 µg/mL (≈ 21.8 µM) | Activity (Cell membrane [31]): Dose-Dependent Effect | hemolysis at 1 h, 512 ug/ml [32]: < 3% | Activity (Escherichia coli [33]): Dose-Dependent Effect | Activity (Cell membrane [34]): Dose-Dependent Effect | MIC (Klebsiella pneumoniae): 8 µg/mL (≈ 21.8 µM) | Activity (Acinetobacter baumannii [35]): Dose-Dependent Effect | fold change (FC) (Acinetobacter baumannii [36]): 8 | Activity (Cell membrane [37]): Dose-Dependent Effect | Activity (Escherichia coli [38]): 2.5 log10CFU | MIC (Staphylococcus aureus [39]): 2 µg/mL (≈ 5.44 µM) | MIC (Staphylococcus aureus [40]): 2 µg/mL (≈ 5.44 µM) | Activity (Escherichia coli [41]): Dose-Dependent Effect | Activity [42]: Non-Toxic | Activity (Escherichia coli [43]): Dose-Dependent Effect | Activity (Erythrocyte): Non-Toxic | viability [44]: > 85% | MIC (Acinetobacter baumannii [45]): 0.5 µg/mL (≈ 1.36 µM) | Activity (Escherichia coli [46]): 21% | Activity (Cell membrane [47]): Dose-Dependent Effect | MIC (Pseudomonas aeruginosa [48]): 2 µg/mL (≈ 5.44 µM) | Activity (Cell membrane [49]): Active | MIC (Staphylococcus aureus [50]): 2 µg/mL (≈ 5.44 µM)
